According to patent publication US9937250B2, “Immunogenic tumor associated stromal cell antigen peptides and methods of their use” (University of Pittsburgh—Of the Commonwealth System of …, priority 2011, dated 2018):

Experiments:
MC38 colon carcinoma = assay: MC38 protection (prophylactic vaccination) model; type: in vivo, HHD mice
From the text: FIGS. 9A-9B show a series of graphs illustrating induction of specific/protective CD8^+ T cells reactive against TASA as a consequence of DC/peptide-based vaccination. In FIG. 9A, HHD mice (five animals/cohort) were vaccinated twice (d-14, d-7) subcutaneously with PBS or with isologous DC.IL12 pulsed with PBS or synthetic peptides (Table 6) derived from the indicated TASA. In cases where more than 1 peptide was identified for a given target antigen, an equimolar pool of the indicated peptides (each 10 μM) was pulsed onto DC.IL12 and used for vaccination in the relevant cohort. One week after the second immunization, spleens were harvested and splenic CD8^+ T cells isolated using MACS-beads (Miltenyi). T cells were stimulated in vitro for 48 h using the HLA-A2^+ T2 cell line pulsed with relevant TASA vs. irrelevant HIV-nef190-198 ([…]; ref. 24) peptides. Cell-free supernatants were then recovered and IFN-γ levels by ELISA. Data are reported as mean+/−SD for triplicate ELISA determinations, and are representative of 3 independent experiments performed. *p<0.05 vs. HIV-nef control peptide responses. In FIG. 9B, HHD mice were vaccinated twice (days −14 and −7; right flank) subcutaneously with PBS or with isologous DC.IL12 pulsed with PBS or synthetic TASA peptides as indicated in FIG. 1A. In cases where more than 1 peptide is identified for a given target antigen, an equimolar pool of the indicated peptides (each 10 μM) was pulsed onto DC.IL12 and used for vaccination in the relevant cohort. One week after the booster vaccine (i.e. day zero), animals were challenged subcutaneously on their left flank with 2×10^6 MC38 colon carcinoma cells. Tumor growth was then monitored every 3-4 days through day 24. All data represent mean tumor area (in mm^2)+/−SD determined from 5 mice/cohort, and are representative of three independent experiments performed. *p<0.05 versus DC only on the indicated days.
Vaccine Experiments. For prophylactic experiments, HHD mice were immunized subcutaneously on the right flank with 100 μl PBS or PBS containing 10^6 syngenic DC.IL12 cells that had been untreated or pre-pulsed for 4 h at 37° C. with 10 μM synthetic peptide(s). Immunizations occurred on days −14 and −7, with mice subsequently receiving injections of MC38 (2×10^6) tumor cells in the left flank on d0. In all cases, treatment groups contained 5 mice per cohort. For analysis of tumor cellular composition in repeat experiments, MC38 tumors were isolated by surgical resection 10 days after tumor inoculation and prepared for fluorescence imaging, as described below. […] Mice were then untreated or treated with control, syngenic DC.IL12 or DC.IL12 (10^6 cells injected subcutaneously in the left flank on days 7 and 14) pulsed with synthetic TBVA peptides. In some assays, as indicated, in vivo antibody depletions (on days 6, 13 and 20 post-tumor inoculation to assess early involvement or on days 60 and 67 or 180 and 187 to assess late involvement) of protective CD4^+ T cells or CD8^+ T cells were performed and monitored as previously described (Zhao et al., Mol Ther., 19:805-814, 2011). In all cases, tumor size (area) was monitored every 3-4 days and is reported as mean+/−SD in mm^2.
The DLK1, EphA2, HBB, NG2, NRP1, NRP2, PDGFRβ, PSMA, RGS5, TEM1, VEGFR1 and VEGFR2 antigens were expressed in situ by blood vessel cells in the MC38 colon carcinoma TME (FIG. 14). Protection of HHD mice against a challenge with HLA-A2^neg MC38 tumor cells injected subcutaneously on day zero was assayed with immunization with TBVA-derived peptides on days −14 and −7. […]

[1] = tested on: MC38 tumor microenvironment; assay: Fluorescence imaging of MC38 tumor sections after prophylactic vaccination; type: in vivo, HHD mice; conditions: day 14 tumors; p<0.05 vs. untreated or DC.IL12/no peptide
From the text: Day 14 MC38 tumors were harvested from HHD mice that had been vaccinated as outlined in FIG. 9B with the indicated peptides (or control PBS or DC.IL12 alone=No peptide). In FIG. 10A, six-micron tissue sections were co-stained with anti-CD8 (green) and anti-NG2 (red) antibodies and imaged by fluorescence microscopy. Blue signal=nuclear counterstain using 4′,6-diamidino-2-phenylindole (DAPI). FIG. 10B provides a summary of the mean+/−SD number of CD8^+ cells per high-power field (HPF) in MC38 tumors isolated from control or vaccinated mice as depicted in FIG. 10A. In FIG. 10C, tissue sections were co-stained with anti-CD31 (green) and anti-NG2 (red) antibodies and imaged by fluorescence microscopy. Blue signal=nuclear counterstain using DAPI. In FIG. 10D, the mean+/−SD number of CD31^+ vessels per HPF of MC38 tumors in control or vaccinated mice are summarized Representative data is depicted from 1 of 3 independent experiments performed. *p<0.05 versus DC only or untreated control mice.
Fluorescence Imaging of Tumor Sections. Tumor tissue samples were prepared and 6 micron sections prepared as previously reported (Komita et al., Cancer Res., 68:8076-8084, 2008). The following Abs were used: (for T cell analyses), rabbit anti-mouse NG2 (Millipore, Bedford, Mass.) and alexa488-conjugated anti-CD4 or -CD8β antibodies or matching isotype controls (all from BD-Biosciences); (for vascular analyses), rat anti-mouse CD31 (BD-Biosciences) and rabbit anti-mouse NG2 (Millipore) Abs; (for TBVA), rat anti-mouse CD31 (BD-Biosciences) and guinea pig anti-mouse NG2 Abs, along with anti-TBVA as described in Example 1. Imaging was performed using an Olympus Fluoview 500 Confocal microscope (Olympus America, Center Valley, Pa.).
Protective vaccines incorporating TBVA peptides promote enhanced infiltration of the TME by CD8^+ T cells in association with an inhibition of tumor vascularity. MC38 tumor lesions from all cohorts of animals with evidence of disease on day 14 (post-tumor inoculation) were isolated and immunofluorescence microscopy on tumor sections was performed. […] In marked contrast, CD4^+ T cell infiltration in the TME was sparse and the data were indistinguishable when comparing control vs. vaccinated mice (FIG. 17). […] Correlative analyses indicated an association between the anti-tumor efficacy of vaccines and their ability to promote CD8^+ T cell infiltration and reduced vascularity in the TME (FIG. 16).

VEGFR2: VEGFR2-derived peptide 773-781 pulsed onto DC or DC.IL12 (VIAMFFWLL; listed as Homo sapiens)
Anti-tumor efficacy in MC38 protection model (MC38 colon carcinoma; DC.IL12 pulsed with a pool of 1 or more peptides derived from the indicated TBVA, vaccination d-14, d-7): +/- (+/-, p < 0.05 versus DC only for 2 consecutive time points) | Protection against HLA-A2neg MC38 tumor challenge (MC38 colon carcinoma; immunization days -14 and -7, tumor challenge day 0 (FIG. 9B)): minimal protection | Suppression in CD31+ vessel counts in the MC38 TME [1]: somewhat less pronounced effects
